Series [1] deals with HT-29 colorectal cancer cells. In words: 15-day clonogenicity experiment, pretreatment before irradiation (Example 6). It is filed as cell-based, human. To be noted: 48 h pretreatment with 20 μM to 100 μM, irradiation 2 to 6 Gy. As for the experimental part: (§1) HT-29 colorectal cancer cells (ATCC number HTB-38) were cultured in Dulbecco's Modified Eagle's Medium (DMEM, product number D 5030, Sigma Chemie AG, Buchs, Switzerland) supplemented with 10% heat-inactivated fetal calf serum (FBS), 1 g/L D-glucose, 3.7 g/L sodium bicarbonate and 0.1 g/L penicillin-streptomycin (all additives from Life Technologies Inc., Grand Island, N.Y.). The cells were cultured at 37° C. in a humidified atmosphere with a 5% CO2 content and kept in the exponential growth phase by twice weekly subculturing. The cultures were tested for mycoplasma infection using the MycoAlert Detection Kit (product number LT07-118, Cambrex, Verviers, Belgium).
The cytotoxic effect of a two-day (48 hours) pretreatment of HT-29 cells with 0 μM, 20 μM, 50 μM or 100 μM DHA or EPA on irradiation of the cells at 0 Gy, 2 Gy, 4 Gy or 6 Gy was examined in a 15-day clonogenicity experiment.
To this end, the culture medium of the cells was replaced with medium which contained the relevant concentrations (0 μM, 20 μM, 50 μM or 100 μM) of DHA or EPA. Controls were cultured in medium without EPA and without DHA. […] The cells were then detached from the culture vessel by means of trypsinization (1× trypsin-EDTA, Life Technologies Inc., Grand Island, N.Y.), resuspended and counted. […] The surviving cell fraction was calculated with reference to the untreated controls (S/S0).

The subject of the next series is HT-29. In words: 15-day clonogenicity experiment, treatment prior to versus after irradiation (Example 7). The following applies: treatment prior to irradiation (A) versus untreated controls (C) and treatment after irradiation (B); for formation of colonies: 20-100 μM, 48 h. Type of series: cell-based, human. On the procedure:
as §1, with “Human” for “HT-29 colorectal”, “cell lines (HT-29; ATCC” for “cells (ATCC”, “are” for “were”, “NY).” for “N.Y.).”
The cytotoxic effect of treatment of the cells with DHA, EPA, MCTs and iron on irradiation of the cells at 0 Gy, 2 Gy, 4 Gy or 6 Gy is examined in a 15-day clonogenicity experiment.
Firstly, the influence of 0 μM, 20 μM, 50 μM or 100 μM DHA or EPA in the case of treatment of the cells (A) prior to the irradiation compared to the treatment of the cells after the irradiation (B) is determined. Cells untreated with EPA or DHA, which are also irradiated, serve as a control (C).
In the case of the cells which are treated with EPA or DHA prior to the irradiation (A), the culture medium of the cells is replaced with medium containing the relevant concentrations (0 μM, 20 μM, 50 μM or 100 μM) of DHA or EPA. The cells are cultured for 48 hours in the medium, and then irradiated with an individual radiation dose of 0 Gy (control), 2 Gy, 4 Gy or 6 Gy in an X-ray 6 MV instrument.
In the case of cells which are treated with EPA or DHA after the irradiation (B) and in the case of the control cells (C), a media change is carried out 48 hours prior to the irradiation; the cells receive normal culture medium. After 48 hours, the cells are irradiated with an individual radiation dose of 0 Gy (control), 2 Gy, 4 Gy or 6 Gy in an X-ray 6 MV instrument.
After the irradiation, the cells are then detached from the culture vessel by means of trypsinization (1× trypsin-EDTA, Life Technologies Inc., Grand Island, NY), resuspended and counted. The cells are subsequently serially diluted according to a standard protocol and seeded in 100×20 mm cell culture dishes containing 10 mL of medium in a cell count which leads to the formation of about 200 colonies. Cells of groups A and C are seeded in normal culture medium, and cells of group B are seeded in medium containing the relevant concentrations (0 μM, 20 μM, 50 μM or 100 μM) of DHA or EPA.
After 48 hours, all cells are subjected to a media change, after which all cells are cultured in normal culture medium.
After a total of 14 days of incubation at 37° C., the vessels are washed with phosphate-buffered saline (PBS, Life Technologies Inc., Grand Island, N.Y.), fixed, and stained with a 0.5% crystal violet solution in methanol/glacial acetic acid (3:1, v/v). The surviving cell fraction is calculated with reference to the untreated controls (S/S0).

Series [2] relates to colorectal cancer cell lines, breast cancer cell lines and lung cancer cell lines. In words: Clonogenicity experiment with further tumor cell lines, pre- versus posttreatment (Example 7). It is filed as cell-based. The following applies: irradiation. On the procedure:
The experiment is carried out analogously with further tumor cell lines (colorectal cancer cell lines, breast cancer cell lines and lung cancer cell lines).

The values below come from patent publication US9675574B2, “Composition comprising a combination of DHA and EPA for administration prior to commencement of chemotherapy” (Fresenius Kabi Deutschland GmbH, priority 2010, dated 2017).

Turning to `CC/C=C\C/C=C\C/C=C\C/C=C\C/C=C\C/C=C\CCC(=O)O` [DHA, (4Z,7Z,10Z,13Z,16Z,19Z)-docosa-4,7,10,13,16,19-hexaenoic acid], the “effect on survival of HT-29 cells in combination with irradiation” value in series [1] was “synergistic effect”. Also, in the series on HT-29, the “size of colonies formed” value is reported as “colonies formed are smaller”, the “surviving cell fraction (S/S0)” value is recorded as “also smaller” and the formation of colonies entry is given as “fewer colonies”. Also, the “cytotoxic effect of pretreatment compared to posttreatment” value in series [2] was “greater cytotoxic effect”.

Turning to `CC/C=C\C/C=C\C/C=C\C/C=C\C/C=C\CCCC(=O)O` [EPA, (5Z,8Z,11Z,14Z,17Z)-eicosa-5,8,11,14,17-pentaenoic acid], the “effect on survival of HT-29 cells in combination with irradiation” value in series [1] was “synergistic effect”. In the series with HT-29, the “size of colonies formed” value is recorded as “colonies formed are smaller”, the “surviving cell fraction (S/S0)” value is reported as “also smaller” and the formation of colonies result was “fewer colonies”. Moreover, the “cytotoxic effect of pretreatment compared to posttreatment” value in series [2] is given as “greater cytotoxic effect”.
